Laboratory results from ChEMBL document CHEMBL3397012, “Synthesis and biological evaluation of 4-nitroindole derivatives as 5-HT2A receptor antagonists” (Bioorg Med Chem, 2015).

Columns and labels:
[1] = molecular target: T1, 5-hydroxytryptamine receptor 2A (Homo sapiens, UniProt P28223); assay: Displacement of [3H]Ketanserin from human recombinant 5-HT2A receptor expressed in CHO-K1 cells at 10 uM after 15 mins; assay type: cell-based
[2] = molecular target: T2, 5-hydroxytryptamine receptor 6 (Homo sapiens, UniProt P50406); assay: Inhibition of human recombinant 5-HT6 receptor expressed in HEK293 cells assessed as inhibition of 5-HT-induced increase in […] pretreated at 10 uM for 10 mins by cAMP accumulation assay; assay type: functional, cell-based
[3] = molecular target: T1, 5-hydroxytryptamine receptor 2A; assay: Displacement of [3H]Ketanserin from human recombinant 5-HT2A receptor expressed in CHO-K1 cells after 15 mins; assay type: cell-based
[4] = molecular target: T3, 5-hydroxytryptamine receptor 2C (Homo sapiens) (UniProt P28335); assay: Displacement of [3H]Mesulergine from human recombinant 5-HT2C receptor expressed in CHO-K1 cells at 10 uM after 15 mins; assay type: cell-based
T3 sequence (whole entry): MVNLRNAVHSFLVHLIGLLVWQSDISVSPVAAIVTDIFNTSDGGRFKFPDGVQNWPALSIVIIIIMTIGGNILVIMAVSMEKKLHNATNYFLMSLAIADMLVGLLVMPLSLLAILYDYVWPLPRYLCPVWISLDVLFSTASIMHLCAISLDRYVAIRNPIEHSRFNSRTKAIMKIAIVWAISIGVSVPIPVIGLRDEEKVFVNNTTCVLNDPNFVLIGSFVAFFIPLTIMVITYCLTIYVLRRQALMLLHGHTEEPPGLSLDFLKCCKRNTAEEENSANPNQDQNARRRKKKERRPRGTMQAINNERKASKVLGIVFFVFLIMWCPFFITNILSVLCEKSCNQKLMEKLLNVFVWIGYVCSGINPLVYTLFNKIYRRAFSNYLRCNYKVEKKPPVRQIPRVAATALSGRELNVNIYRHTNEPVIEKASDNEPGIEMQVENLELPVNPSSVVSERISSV

[5] = molecular target: T4, 5-hydroxytryptamine receptor 2C (Homo sapiens, UniProt P28335); assay: Displacement of [3H]Mesulergine from human recombinant 5-HT2C receptor expressed in CHO-K1 cells after 15 mins; assay type: cell-based
T4 sequence (P28335 whole entry): T3 sequence (whole entry)

[6] = molecular target: T2, 5-hydroxytryptamine receptor 6; assay: Inhibition of human recombinant 5-HT6 receptor expressed in HEK293 cells assessed as inhibition of 5-HT-induced increase in […] pretreated for 10 mins by cAMP accumulation assay; assay type: functional, cell-based

T2 sequence (P50406 whole entry): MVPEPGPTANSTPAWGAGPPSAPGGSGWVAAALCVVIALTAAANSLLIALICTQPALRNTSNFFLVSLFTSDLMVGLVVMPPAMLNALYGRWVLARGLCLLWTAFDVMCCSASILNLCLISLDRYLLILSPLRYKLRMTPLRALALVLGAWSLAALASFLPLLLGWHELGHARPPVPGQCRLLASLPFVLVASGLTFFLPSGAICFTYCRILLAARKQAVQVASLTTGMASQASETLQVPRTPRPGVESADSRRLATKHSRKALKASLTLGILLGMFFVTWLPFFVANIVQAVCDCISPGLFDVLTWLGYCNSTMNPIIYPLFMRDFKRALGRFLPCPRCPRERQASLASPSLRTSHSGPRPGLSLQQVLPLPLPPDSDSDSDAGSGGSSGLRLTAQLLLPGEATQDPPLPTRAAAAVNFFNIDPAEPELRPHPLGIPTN
T1 sequence (P28223 whole entry): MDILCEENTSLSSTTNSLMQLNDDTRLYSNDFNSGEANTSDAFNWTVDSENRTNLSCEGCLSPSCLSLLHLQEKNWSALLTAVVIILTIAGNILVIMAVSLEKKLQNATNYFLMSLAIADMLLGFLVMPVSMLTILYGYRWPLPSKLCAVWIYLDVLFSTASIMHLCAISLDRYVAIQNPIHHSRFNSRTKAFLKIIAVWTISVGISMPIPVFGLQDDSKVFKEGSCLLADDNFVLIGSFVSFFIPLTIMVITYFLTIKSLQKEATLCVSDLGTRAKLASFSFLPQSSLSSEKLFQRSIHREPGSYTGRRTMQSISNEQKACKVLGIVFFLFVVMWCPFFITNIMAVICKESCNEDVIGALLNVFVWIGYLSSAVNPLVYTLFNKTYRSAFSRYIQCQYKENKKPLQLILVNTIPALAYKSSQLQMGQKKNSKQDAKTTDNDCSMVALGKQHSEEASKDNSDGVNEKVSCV

| SMILES | inhibition [1] [%] | inhibition [2] [%] | IC50 [3] [nM] | inhibition [4] [%] | IC50 [5] [nM] | IC50 [6] [nM] |
| --- | --- | --- | --- | --- | --- | --- |
| CN(C)/C=N/N=C/c1cn(S(=O)(=O)c2ccc3ccccc3c2)c2cccc([N+](=O)[O-])c12 | 88 | 68 | 433 | 80.1 | 463 | 2530 |
| CN(C)/C=N/N=C/c1cn(S(=O)(=O)c2cccc3ccccc23)c2cccc([N+](=O)[O-])c12 | 94.6 | 73.9 | 555 | 64.2 | – | 2960 |
| COc1ccc(Cl)cc1S(=O)(=O)n1cc(/C=N/N=C/N(C)C)c2c([N+](=O)[O-])cccc21 | 75.9 | 87.7 | 1590 | 44.9 | – | 2440 |
| COc1ccc(OC)c(S(=O)(=O)n2cc(/C=N/N=C/N(C)C)c3c([N+](=O)[O-])cccc32)c1 | 84.4 | 78.2 | 479 | 48.1 | – | 1400 |
| CN1CCN(c2nc3ccc(NS(=O)(=O)c4cccc5ccccc45)cc3s2)CC1 | – | – | – | – | – | 3900 |

Further lines, results first:

| inhibition [1] [%] | inhibition [2] [%] | IC50 [3] [nM] | inhibition [4] [%] | IC50 [5] [nM] | IC50 [6] [nM] | SMILES |
| --- | --- | --- | --- | --- | --- | --- |
| 85.2 | 62.4 | 247 | 66.2 | – | 6340 | CN(C)/C=N/N=C/c1cn(S(=O)(=O)c2ccc(I)cc2)c2cccc([N+](=O)[O-])c12 |
| 90.7 | 78.6 | 205 | 67.8 | 1040 | 740 | COc1ccc(S(=O)(=O)n2cc(/C=N/N=C/N(C)C)c3c([N+](=O)[O-])cccc32)cc1 |
| 88.3 | 75.2 | 253 | 82.3 | 480 | 2120 | Cc1ccc(S(=O)(=O)n2cc(/C=N/N=C/N(C)C)c3c([N+](=O)[O-])cccc32)cc1 |
| 94.2 | 63.9 | 702 | 55.5 | – | 4970 | CN(C)/C=N/N=C/c1cn(S(=O)(=O)c2ccc(F)cc2)c2cccc([N+](=O)[O-])c12 |
| 83.9 | 78.1 | 329 | 48.4 | – | 1830 | CN(C)/C=N/N=C/c1cn(S(=O)(=O)c2ccccc2)c2cccc([N+](=O)[O-])c12 |
| – | 11.3 | – | – | – | – | CCCCc1ccc(S(=O)(=O)n2cc(/C=N/N=C/N(C)C)c3c([N+](=O)[O-])cccc32)cc1 |
